According to patent US20120093948A1, “Nitric Oxide Treatments” (priority 2009, published 2012):
Like-named read-outs stand apart in the source and are kept apart here.

How the values were obtained:
man = conditions: cited from earlier work
Guinea Pig = conditions: less than 1 ppm, duration 7 days; cited from earlier work
Rabbit = conditions: less than 1 ppm, duration 24 days; cited from earlier work
Mouse = conditions: less than 1 ppm, cited from earlier work
[1] = system: patients with cardiogenic shock due to RVMI; conditions: cited from earlier work
mice models of malaria = conditions: mouse, in vivo; cited from earlier work
rats = test: Fourteen-day toxicity study using the delivery devices, rats; format: in vivo; conditions: doses well in excess of 80 ppm NO
[2] = system: patients with pulmonary fibrosis; conditions: inhaled; cited from earlier work
[3] = system: patents suffering massive pulmonary embolism; conditions: inhaled; cited from earlier work
dogs = test: Fourteen-day toxicity study using the delivery devices, dogs; format: in vivo; conditions: doses well in excess of 80 ppm NO
[4] = system: child with traumatic brain injury; conditions: NO therapy; cited from earlier work
COPD patients = conditions: NO with oxygen, 3 month period, compared to oxygen alone; cited from earlier work
[5] = system: patients with acute lung injury/acute respiratory distress syndrome; conditions: conventional iNO; cited from earlier work
[6] = system: newborns with hypoxic respiratory failure; conditions: inhaled; cited from earlier work
[7] = system: patients with pulmonary tuberculosis; conditions: 80 ppm; cited from earlier work

[O]N=O [NO2, nitrogen dioxide]
OUTCOME (man; NO2 dose 0.1 ppm, exposure 60 min, asthmatics): 13/16 asthmatics increase in reaction to | OUTCOME (man; NO2 dose 0.7-2.0 ppm, exposure 10 min): Increase in inspiratory and expiratory flow | OUTCOME (man; NO2 dose 1.6-2.0 ppm, exposure 15 min): Significant increase in total airway resistance | OUTCOME(S) (Guinea Pig): Increased protein content of lung lavage fluid | OUTCOME(S) (Rabbit): Structural changes in lung collagen fibers | OUTCOME(S) (Mouse; duration 1 day): Increased ascorbic acid levels in the liver | OUTCOME(S) (Mouse; duration 90 days): Depression in serum neutralizing

[N]=O [NO, nitric oxide]
decreased mPAP ([1]; NO 80 ppm acutely): 12% | decreased mRAP ([1]; NO 80 ppm acutely): 12% | improved cardiac index ([1]; NO 80 ppm acutely): 24% | decrease shunt flow ([1]; inhaled NO): 56% | systemic oxygen saturation ([1]; inhaled NO): markedly improved | neurological damage (mice models of malaria): protection | survival (mice models of malaria): increased chance of survival | Fourteen-day toxicity study outcome (rats): successfully been completed | arterial oxygen tension [2]: without a decrease | pulmonary vascular resistance [2]: decreased | ventilation perfusion matching [2]: maintained | systemic blood pressures, heart rate and gas exchange [3]: improvements | Fourteen-day toxicity study outcome (dogs): successfully been completed | adverse cerebral effects [4]: No adverse cerebral effects | oxygenation (COPD patients): did not result in a decrease | outcomes (increased PaO2, survival) [5]: positive outcomes | arterial oxygen levels [6]: safely improves | need for Extracorporeal Membrane Oxygenation (ECMO) [6]: decreases | safety of delivery [7]: safely delivered
